Laboratory results: patent US12226412B2, “Heteroaryl-ketone fused azadecalin glucocorticoid receptor modulators” (Corcept Therapeutics, Inc., priority 2012, dated 2025)
Like-named read-outs stand apart in the source and are kept apart here.

Columns and labels:
[1] = test system: induction of TAT by dexamethasone in HepG2 cells; test: HepG2 tyrosine aminotransferase (TAT) assay; assay type: cell-based, human
[2] = biological target: T1, human recombinant GR (Homo sapiens, UniProt P04150); test: Human glucocorticoid receptor (GR) fluorescence polarisation (FP) binding assay
T1 construct: purchased PanVera P2812
T1 sequence (P04150 1-777): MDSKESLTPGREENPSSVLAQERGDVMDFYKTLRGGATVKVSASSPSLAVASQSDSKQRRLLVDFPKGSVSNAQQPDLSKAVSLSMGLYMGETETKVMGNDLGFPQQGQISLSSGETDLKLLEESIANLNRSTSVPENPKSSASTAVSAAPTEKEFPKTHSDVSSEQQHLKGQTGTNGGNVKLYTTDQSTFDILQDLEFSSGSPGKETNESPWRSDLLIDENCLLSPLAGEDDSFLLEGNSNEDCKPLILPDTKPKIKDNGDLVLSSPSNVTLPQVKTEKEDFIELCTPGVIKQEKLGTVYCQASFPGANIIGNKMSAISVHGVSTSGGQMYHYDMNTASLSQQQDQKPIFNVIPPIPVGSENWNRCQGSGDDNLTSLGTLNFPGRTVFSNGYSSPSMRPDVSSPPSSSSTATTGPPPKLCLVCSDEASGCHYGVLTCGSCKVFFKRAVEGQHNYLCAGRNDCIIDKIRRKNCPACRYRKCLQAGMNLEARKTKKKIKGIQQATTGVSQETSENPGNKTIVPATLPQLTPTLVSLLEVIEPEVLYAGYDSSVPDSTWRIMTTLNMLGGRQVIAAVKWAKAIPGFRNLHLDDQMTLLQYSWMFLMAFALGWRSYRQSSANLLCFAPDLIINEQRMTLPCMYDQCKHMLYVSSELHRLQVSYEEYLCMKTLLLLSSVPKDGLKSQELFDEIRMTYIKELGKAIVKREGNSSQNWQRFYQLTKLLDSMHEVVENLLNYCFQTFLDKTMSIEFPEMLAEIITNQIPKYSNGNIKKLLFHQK
Outline: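 Competition fluorescence polarisation: 0.5 nM GS Red labelled glucocorticoid and 1 nM recombinant human GR with 8-point half-log compound series, 1% DMSO, 4 h room temperature, potassium phosphate pH 7.4 buffer with molybdate, EDTA, DTT. Affinity derived from the drop in polarisation, normalised to blank wells.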

[3] = HepG2 cells, challenge of 100 nM dexamethasone, Ki from IC50 by Cheng and Prusoff equation
[4] = human recombinant GR, fluorescence polarisation binding assay, read-out: GR binding

Which results are given for `Cc1ccnc(C(=O)[C@]23Cc4cnn(-c5ccc(F)cc5)c4C=C2CCN(S(=O)(=O)c2cccc(C(F)(F)F)n2)C3)c1` [Example 11AE, (R)-(1-(4-fluorophenyl)-6-((6-(trifluoromethyl)pyridin-2-yl)sulfonyl)-4,4a,5,6,7,8-hexahydro-1H-pyrazolo[3,4-g]isoquinolin-4a-yl)(4-methylpyridin-2-yl)methanone]?
Ki [1, 3]: < 20 nM; Ki [2, 4]: < 0.5 nM

What does the source list for `Cc1cnc(C(=O)[C@]23Cc4cnn(-c5ccc(F)cc5)c4C=C2CCN(S(=O)(=O)c2ccn(C)n2)C3)s1` [Example 12S, (R)-(1-(4-fluorophenyl)-6-((1-methyl-1H-pyrazol-3-yl)sulfonyl)-4,4a,5,6,7,8-hexahydro-1H-pyrazolo[3,4-g]isoquinolin-4a-yl)(5-methylthiazol-2-yl)methanone]?
Ki [1, 3]: < 20 nM; Ki [2, 4]: < 0.5 nM

Which results are given for `O=C(c1ccco1)[C@]12Cc3cnn(-c4ccc(F)cc4)c3C=C1CCN(S(=O)(=O)c1ccc(C(F)(F)F)cc1)C2` [Example 1G, (R)-(1-(4-fluorophenyl)-6-((4-(trifluoromethyl)phenyl)sulfonyl)-4,4a,5,6,7,8-hexahydro-1H-pyrazolo[3,4-g]isoquinolin-4a-yl)(furan-2-yl)methanone]?
Ki [1]: 20 to 100 nM; Ki [2]: < 0.5 nM

Which Ki [1, 3] does the source give for `Cc1ccnc(C(=O)[C@]23Cc4cnn(-c5ccc(F)cc5)c4C=C2CCN(S(=O)(=O)c2ccc4c(c2)CC(=O)N4C)C3)c1` [Example 11AO, (R)-5-((1-(4-fluorophenyl)-4a-(4-methylpicolinoyl)-4a,5,7,8-tetrahydro-1H-pyrazolo[3,4-g]isoquinolin-6 (4H)-yl)sulfonyl)-1-methylindolin-2-one] here?
Its Ki is less than 20 nM.

What about the Ki [2, 4] of the same compound?
The Ki was less than 0.5 nM.

With `CCn1cnc(S(=O)(=O)N2CCC3=Cc4c(cnn4-c4ccc(F)cc4)C[C@]3(C(=O)c3cc(C(F)(F)F)ccn3)C2)c1` [Example 11BY, (R)-(6-((1-ethyl-1H-imidazol-4-yl)sulfonyl)-1-(4-fluorophenyl)-4,4a,5,6,7,8-hexahydro-1H-pyrazolo[3,4-g]isoquinolin-4a-yl)(4-(trifluoromethyl)pyridin-2-yl)methanone] as the compound, how does the Ki [1, 3] read?
Its Ki is less than 20 nM.

What about the Ki [2, 4] of the same compound?
Its Ki is less than 0.5 nM.

With `Cc1cc(S(=O)(=O)N2CCC3=Cc4c(cnn4-c4ccc(F)cc4)C[C@]3(C(=O)c3ncc(C)s3)C2)n(C)n1` [Example 12U, (R)-(6-((1,3-dimethyl-1H-pyrazol-5-yl)sulfonyl)-1-(4-fluorophenyl)-4,4a,5,6,7,8-hexahydro-1H-pyrazolo[3,4-g]isoquinolin-4a-yl)(5-methylthiazol-2-yl)methanone] as the compound, how does the Ki [1, 3] read?
Its Ki is 20 to 100 nM.

And the Ki [2, 4]?
Its Ki is greater than 1 nM.

How did the Ki [1, 3] turn out when `Cc1cccc(S(=O)(=O)N2CCC3=Cc4c(cnn4-c4ccc(F)cc4)C[C@]3(C(=O)c3ccccn3)C2)n1` [Example 11O, (R)-(1-(4-fluorophenyl)-6-((6-methylpyridin-2-yl)sulfonyl)-4,4a,5,6,7,8-hexahydro-1H-pyrazolo[3,4-g]isoquinolin-4a-yl)(pyridin-2-yl)methanone] was run?
The Ki was less than 20 nM.

What about the Ki [2, 4] of the same compound?
The Ki was less than 0.5 nM.

For `Cn1cc(S(=O)(=O)N2CCC3=Cc4c(cnn4-c4ccc(F)cc4)C[C@]3(C(=O)c3ccccn3)C2)cn1` [Example 2M, (R)-(1-(4-fluorophenyl)-6-((1-methyl-1H-pyrazol-4-yl)sulfonyl)-4,4a,5,6,7,8-hexahydro-1H-pyrazolo[3,4-g]isoquinolin-4a-yl)(pyridin-2-yl)methanone], which Ki [1, 3] is on record?
The Ki was 20 to 100 nM.

What about the Ki [2, 4] of the same compound?
Its Ki is less than 0.5 nM.

For `Cc1ccc(C(=O)[C@]23Cc4cnn(-c5ccc(F)cc5)c4C=C2CCN(S(=O)(=O)c2cccc(C)c2)C3)nc1` [Example 12F, (R)-(1-(4-fluorophenyl)-6-(m-tolylsulfonyl)-4,4a,5,6,7,8-hexahydro-1H-pyrazolo [3,4-g]isoquinolin-4a-yl)(5-methylpyridin-2-yl)methanone], which Ki [1, 3] is on record?
Its Ki is less than 20 nM.

And the Ki [2, 4]?
Its Ki is less than 0.5 nM.

Which results are given for `O=C(c1nccs1)[C@]12Cc3cnn(-c4ccc(F)cc4)c3C=C1CCN(S(=O)(=O)c1ccc(N3CCCC3)cc1)C2` [Example 6, (R)-(1-(4-fluorophenyl)-6-((4-(pyrrolidin-1-yl)phenyl)sulfonyl)-4,4a,5,6,7,8-hexahydro-1H-pyrazolo[3,4-g]isoquinolin-4a-yl)(thiazol-2-yl)methanone]?
Ki [1, 3]: 20 to 100 nM; Ki [2, 4]: 0.5 to 1 nM

Which Ki [1] does the source give for `O=C(c1nccs1)[C@]12Cc3cnn(-c4ccc(F)cc4)c3C=C1CCN(S(=O)(=O)c1ccc(C(F)(F)F)cc1)C2` [Example 1C, (R)-(1-(4-fluorophenyl)-6-((4-(trifluoromethyl)phenyl)sulfonyl)-4,4a,5,6,7,8-hexahydro-1H-pyrazolo[3,4-g]isoquinolin-4a-yl)(thiazol-2-yl)methanone] here?
The Ki was less than 20 nM.

And the Ki [2]?
The Ki was less than 0.5 nM.

For `CCn1nccc1S(=O)(=O)N1CCC2=Cc3c(cnn3-c3ccc(F)cc3)C[C@]2(C(=O)c2cscn2)C1` [Example 11CW, (R)-(6-((1-ethyl-1H-pyrazol-5-yl)sulfonyl)-1-(4-fluorophenyl)-4,4a,5,6,7,8-hexahydro-1H-pyrazolo[3,4-g]isoquinolin-4a-yl)(thiazol-4-yl)methanone], which Ki [1, 3] is on record?
Its Ki is 20 to 100 nM.

And the Ki [2, 4]?
Its Ki is less than 0.5 nM.

Which Ki [1, 3] does the source give for `CCn1cc(S(=O)(=O)N2CCC3=Cc4c(cnn4-c4ccc(F)cc4)C[C@]3(C(=O)c3cc(C(F)(F)F)ccn3)C2)cn1` [Example 15, (R)-(6-((1-ethyl-1H-pyrazol-4-yl)sulfonyl)-1-(4-fluorophenyl)-4,4a,5,6,7,8-hexahydro-1H-pyrazolo[3,4-g]isoquinolin-4a-yl)(4-(trifluoromethyl)pyridin-2-yl)methanone] here?
Its Ki is less than 20 nM.

And the Ki [2, 4]?
The Ki was less than 0.5 nM.

Which results are given for `Cn1ncc(S(=O)(=O)N2CCC3=Cc4c(cnn4-c4ccc(F)cc4)C[C@]3(C(=O)c3cc(C(F)(F)F)ccn3)C2)n1` [Example 11CE, (R)-(1-(4-fluorophenyl)-6-((2-methyl-2H-1,2,3-triazol-4-yl)sulfonyl)-4,4a,5,6,7,8-hexahydro-1H-pyrazolo[3,4-g]isoquinolin-4a-yl)(4-(trifluoromethyl)pyridin-2-yl)methanone]?
Ki [1, 3]: < 20 nM; Ki [2, 4]: < 0.5 nM

`CCCn1ncc(S(=O)(=O)N2CCC3=Cc4c(cnn4-c4ccc(F)cc4)C[C@]3(C(=O)c3ccccn3)C2)n1` [Example 11CN, (R)-(1-(4-fluorophenyl)-6-((2-propyl-2H-1,2,3-triazol-4-yl)sulfonyl)-4,4a,5,6,7,8-hexahydro-1H-pyrazolo[3,4-g]isoquinolin-4a-yl)(pyridin-2-yl)methanone] was tested. Which Ki [1, 3] did it give?
The Ki was less than 20 nM.

What about the Ki [2, 4] of the same compound?
The Ki was less than 0.5 nM.

For `Cn1ncc(S(=O)(=O)N2CCC3=Cc4c(cnn4-c4ccc(F)cc4)C[C@]3(C(=O)c3cscn3)C2)n1` (single isomer, unassigned) [Example 11DA], which Ki [1, 3] is on record?
Its Ki is less than 20 nM.

What about the Ki [2, 4] of the same compound?
Its Ki is less than 0.5 nM.

`CN1CCOc2cc(S(=O)(=O)N3CCC4=Cc5c(cnn5-c5ccc(F)cc5)C[C@]4(C(=O)c4ccccn4)C3)cnc21` [Example 11AB, (R)-(1-(4-fluorophenyl)-6-((4-methyl-3,4-dihydro-2H-pyrido [3,2-b][1,4]oxazin-7-yl)sulfonyl)-4,4a,5,6,7,8-hexahydro-1H-pyrazolo[3,4-g]isoquinolin-4a-yl)(pyridin-2-yl)methanone] was tested. Which Ki [1, 3] did it give?
The Ki was 20 to 100 nM.

And the Ki [2, 4]?
Its Ki is less than 0.5 nM.

Which Ki [1, 3] does the source give for `O=C(c1ccccn1)[C@]12Cc3cnn(-c4ccc(F)cc4)c3C=C1CCN(S(=O)(=O)c1cc(F)c(F)c(F)c1)C2` [Example 11Q, (R)-(1-(4-fluorophenyl)-6-((3,4,5-trifluorophenyl)sulfonyl)-4,4a,5,6,7,8-hexahydro-1H-pyrazolo[3,4-g]isoquinolin-4a-yl)(pyridin-2-yl)methanone] here?
The Ki was less than 20 nM.

And the Ki [2, 4]?
The Ki was less than 0.5 nM.

What does the source list for `O=C(c1cc(C(F)(F)F)ccn1)[C@]12Cc3cnn(-c4ccc(F)cc4)c3C=C1CCN(S(=O)(=O)c1cc(F)c(F)c(F)c1)C2` [Example 11BQ, (R)-(1-(4-fluorophenyl)-6-((3,4,5-trifluorophenyl)sulfonyl)-4,4a,5,6,7,8-hexahydro-1H-pyrazolo[3,4-g]isoquinolin-4a-yl)(4-(trifluoromethyl)pyridin-2-yl)methanone]?
Ki [1, 3]: < 20 nM; Ki [2, 4]: > 1 nM

With `Cc1cccc(S(=O)(=O)N2CCC3=Cc4c(cnn4-c4ccc(F)cc4)C[C@]3(C(=O)c3cscn3)C2)c1` [Example 11F, (R)-(1-(4-fluorophenyl)-6-(m-tolylsulfonyl)-4,4a,5,6,7,8-hexahydro-1H-pyrazolo [3,4-g]isoquinolin-4a-yl)(thiazol-4-yl)methanone] as the compound, how does the Ki [1, 3] read?
Its Ki is 20 to 100 nM.

What about the Ki [2, 4] of the same compound?
Its Ki is less than 0.5 nM.

What does the source list for `Cc1ccc(S(=O)(=O)N2CCC3=Cc4c(cnn4-c4ccc(F)cc4)C[C@]3(C(=O)c3cscn3)C2)cc1` [Example 11K, (R)-(1-(4-fluorophenyl)-6-tosyl-4,4a,5,6,7,8-hexahydro-1H-pyrazolo[3,4-g]isoquinolin-4a-yl)(thiazol-4-yl)methanone]?
Ki [1, 3]: < 20 nM; Ki [2, 4]: < 0.5 nM
